Source: PubChem BioAssay (NCI)
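Assay format: 96-well plates, 48-hour exposure. At the GI50, growth is halved. TGI is the concentration that stops growth completely.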

Experiments:
Test in all cases: NCI-60 cell line screen, 48 h
K-562 leukemia = system: K-562 leukemia
SN12C renal = system: SN12C renal
DU-145 prostate = system: DU-145 prostate
OVCAR-8 ovarian = system: OVCAR-8 ovarian
SW-620 colon = system: SW-620 colon
SK-MEL-2 melanoma = system: SK-MEL-2 melanoma
HCT-15 colon = system: HCT-15 colon
MALME-3M melanoma = system: MALME-3M melanoma
IGROV1 ovarian = system: IGROV1 ovarian
T-47D breast = system: T-47D breast
NCI-H23 lung = system: NCI-H23 lung
SK-MEL-5 melanoma = system: SK-MEL-5 melanoma
CAKI-1 renal = system: CAKI-1 renal
BT-549 breast = system: BT-549 breast
OVCAR-3 ovarian = system: OVCAR-3 ovarian
MOLT-4 leukemia = system: MOLT-4 leukemia
MDA-MB-231 breast = system: MDA-MB-231 breast
CCRF-CEM leukemia = system: CCRF-CEM leukemia
HCC-2998 colon = system: HCC-2998 colon
SK-MEL-28 melanoma = system: SK-MEL-28 melanoma
M14 melanoma = system: M14 melanoma
TK-10 renal = system: TK-10 renal
PC-3 prostate = system: PC-3 prostate
SNB-19 CNS = system: SNB-19 CNS
HT29 colon = system: HT29 colon
ACHN renal = system: ACHN renal
RPMI-8226 leukemia = system: RPMI-8226 leukemia
786-0 renal = system: 786-0 renal
SF-539 CNS = system: SF-539 CNS
OVCAR-5 ovarian = system: OVCAR-5 ovarian
OVCAR-4 ovarian = system: OVCAR-4 ovarian
UACC-257 melanoma = system: UACC-257 melanoma
KM12 colon = system: KM12 colon
NCI/ADR-RES ovarian = system: NCI/ADR-RES ovarian
SNB-75 CNS = system: SNB-75 CNS
UO-31 renal = system: UO-31 renal
HS 578T breast = system: HS 578T breast
LOX IMVI melanoma = system: LOX IMVI melanoma
HL-60(TB) leukemia = system: HL-60(TB) leukemia
MCF7 breast = system: MCF7 breast
RXF 393 renal = system: RXF 393 renal
SR leukemia = system: SR leukemia
HOP-62 NSCLC = system: HOP-62 NSCLC
A498 renal = system: A498 renal
SK-OV-3 ovarian = system: SK-OV-3 ovarian
NCI-H460 lung = system: NCI-H460 lung
HCT-116 colon = system: HCT-116 colon
SF-268 CNS = system: SF-268 CNS
A549 NSCLC = system: A549 NSCLC
MDA-MB-435 = system: MDA-MB-435
SF-295 CNS = system: SF-295 CNS
HOP-92 NSCLC = system: HOP-92 NSCLC
U251 CNS = system: U251 CNS
NCI-H226 lung = system: NCI-H226 lung
COLO 205 colon = system: COLO 205 colon
UACC-62 melanoma = system: UACC-62 melanoma
NCI-H522 lung = system: NCI-H522 lung

Molecule `CCN(Cc1ccncc1)c1ccc(CO)c(Cl)c1` has a GI50 (K-562 leukemia) of 5.62 µM, a TGI (K-562 leukemia) of over 100 µM and a GI50 (SN12C renal) of over 100 µM. For the same molecule, the TGI (SN12C renal) was over 100 µM, the GI50 (DU-145 prostate) was over 100 µM and the TGI (DU-145 prostate) was over 100 µM. The GI50 (OVCAR-8 ovarian) was 96.9 µM, the TGI (OVCAR-8 ovarian) was over 100 µM and the GI50 (SW-620 colon) was 3.74 µM. It also gave a TGI (SW-620 colon) of over 100 µM, a GI50 (SK-MEL-2 melanoma) of over 24.7 µM and a TGI (SK-MEL-2 melanoma) of over 100 µM. For the same molecule, the GI50 (HCT-15 colon) was over 100 µM, the TGI (HCT-15 colon) was over 100 µM and the GI50 (MALME-3M melanoma) was over 100 µM. For the same molecule, the TGI (MALME-3M melanoma) was over 100 µM, the GI50 (IGROV1 ovarian) was 0.372 µM and the TGI (IGROV1 ovarian) was 2.48 µM. For the same molecule, the GI50 (T-47D breast) was 0.367 µM, the TGI (T-47D breast) was 2.84 µM and the GI50 (NCI-H23 lung) was over 100 µM. For the same molecule, the TGI (NCI-H23 lung) was over 100 µM, the GI50 (SK-MEL-5 melanoma) was 23.8 µM and the TGI (SK-MEL-5 melanoma) was over 100 µM. For the same molecule, the GI50 (CAKI-1 renal) was 61.6 µM, the TGI (CAKI-1 renal) was over 100 µM and the GI50 (BT-549 breast) was over 100 µM. It also gave a TGI (BT-549 breast) of over 100 µM, a GI50 (OVCAR-3 ovarian) of 1.14 µM and a TGI (OVCAR-3 ovarian) of 4.67 µM. For the same molecule, the GI50 (MOLT-4 leukemia) was over 100 µM, the TGI (MOLT-4 leukemia) was over 100 µM and the GI50 (MDA-MB-231 breast) was over 100 µM. The TGI (MDA-MB-231 breast) was over 100 µM, the GI50 (CCRF-CEM leukemia) was over 100 µM and the TGI (CCRF-CEM leukemia) was over 100 µM. For the same molecule, the GI50 (HCC-2998 colon) was 22 µM, the TGI (HCC-2998 colon) was over 100 µM and the GI50 (SK-MEL-28 melanoma) was over 100 µM. The TGI (SK-MEL-28 melanoma) was over 100 µM, the GI50 (M14 melanoma) was over 100 µM and the TGI (M14 melanoma) was over 100 µM. For the same molecule, the GI50 (TK-10 renal) was 0.0945 µM, the TGI (TK-10 renal) was 0.34 µM and the GI50 (PC-3 prostate) was over 100 µM. It also gave a TGI (PC-3 prostate) of over 100 µM, a GI50 (SNB-19 CNS) of over 100 µM and a TGI (SNB-19 CNS) of over 100 µM. For the same molecule, the GI50 (HT29 colon) was 4.07 µM, the TGI (HT29 colon) was over 100 µM and the GI50 (ACHN renal) was over 100 µM. The TGI (ACHN renal) was over 100 µM, the GI50 (RPMI-8226 leukemia) was 15.6 µM and the TGI (RPMI-8226 leukemia) was over 100 µM. The GI50 (786-0 renal) was over 57 µM, the TGI (786-0 renal) was over 100 µM and the GI50 (SF-539 CNS) was over 100 µM. For the same molecule, the TGI (SF-539 CNS) was over 100 µM, the GI50 (OVCAR-5 ovarian) was 0.152 µM and the TGI (OVCAR-5 ovarian) was 0.584 µM. It also gave a GI50 (OVCAR-4 ovarian) of 0.548 µM, a TGI (OVCAR-4 ovarian) of 6.27 µM and a GI50 (UACC-257 melanoma) of 0.237 µM. For the same molecule, the TGI (UACC-257 melanoma) was 0.738 µM, the GI50 (KM12 colon) was over 100 µM and the TGI (KM12 colon) was over 100 µM. It also gave a GI50 (NCI/ADR-RES ovarian) of 81.1 µM, a TGI (NCI/ADR-RES ovarian) of over 100 µM and a GI50 (SNB-75 CNS) of over 77.8 µM. For the same molecule, the TGI (SNB-75 CNS) was over 100 µM, the GI50 (UO-31 renal) was 24.9 µM and the TGI (UO-31 renal) was over 100 µM. It also gave a GI50 (HS 578T breast) of over 100 µM, a TGI (HS 578T breast) of over 100 µM and a GI50 (LOX IMVI melanoma) of over 100 µM. It also gave a TGI (LOX IMVI melanoma) of over 100 µM, a GI50 (HL-60(TB) leukemia) of over 32 µM and a TGI (HL-60(TB) leukemia) of over 100 µM. It also gave a GI50 (MCF7 breast) of 0.589 µM, a TGI (MCF7 breast) of over 100 µM and a TGI (RXF 393 renal) of over 100 µM. The GI50 (SR leukemia) was over 100 µM, the TGI (SR leukemia) was over 100 µM and the GI50 (HOP-62 NSCLC) was 5.03 µM. It also gave a TGI (HOP-62 NSCLC) of over 100 µM, a GI50 (A498 renal) of 0.0525 µM and a TGI (A498 renal) of 0.203 µM. It also gave a GI50 (SK-OV-3 ovarian) of over 76.1 µM, a TGI (SK-OV-3 ovarian) of over 100 µM and a GI50 (NCI-H460 lung) of 0.638 µM. The TGI (NCI-H460 lung) was over 100 µM, the GI50 (HCT-116 colon) was 0.352 µM and the TGI (HCT-116 colon) was over 100 µM. For the same molecule, the GI50 (SF-268 CNS) was over 100 µM, the TGI (SF-268 CNS) was over 100 µM and the GI50 (A549 NSCLC) was 8.48 µM. For the same molecule, the TGI (A549 NSCLC) was over 100 µM, the GI50 (MDA-MB-435) was over 100 µM and the TGI (MDA-MB-435) was over 100 µM. It also gave a GI50 (SF-295 CNS) of 0.951 µM, a TGI (SF-295 CNS) of over 56.3 µM and a GI50 (HOP-92 NSCLC) of 2.69 µM. The TGI (HOP-92 NSCLC) was over 74.1 µM, the GI50 (U251 CNS) was 4.22 µM and the TGI (U251 CNS) was over 100 µM. It also gave a GI50 (NCI-H226 lung) of 0.127 µM, a TGI (NCI-H226 lung) of 0.32 µM and a GI50 (COLO 205 colon) of 1.77 µM. The TGI (COLO 205 colon) was 6.34 µM, the GI50 (UACC-62 melanoma) was 0.333 µM and the TGI (UACC-62 melanoma) was 2.17 µM. For the same molecule, the GI50 (NCI-H522 lung) was over 100 µM and the TGI (NCI-H522 lung) was over 100 µM.
